Where a SMILES comes first, the peptide text is derived from it.
Tests used:
A. actinomycetemcomitans = experiment: Fluorescence microscopy, internalization of FITC-labeled peptide in bacteria; assay type: cell-based, Actinobacillus actinomycetemcomitans; conditions: data not shown
Source text: In order to visualize the association of 20-mer with fungi or bacteria and its fungal cellular localization, N-terminal FITC-labeled MUC7 20-mer was used. […] In addition, confocal fluorescence microscopy was used to study the intracellular target of the peptides.

C. albicans [1] = experiment: Fungal transmembrane potential, DiSC3(5) dye release; assay type: cell-based, Candida albicans; conditions: peptide 18 μM, 1500 second
Method: (§1) Peptide-induced permeabilization of C. albicans and C. neoformas cell membranes was monitored by measuring changes in transmembrane potential. Measurements were carried out using the transmembrane potential sensitive dye 3,3′-dipropyl-2,2′-thiadicarbocyanine iodide (DiSC3(5)). Fungi were grown overnight on SAB plates and resuspended in 10 mM Na phosphate buffer pH 7.4 at a concentration of 1×10^5 cells/ml. Dye was diluted in ethanol to achieve a final concentration of 714 nM. […] The use of this dye in fungal cells to monitor changes in permeabilization is reliable and well documented. This cationic dye accumulates on membranes, is translocated into the lipid bilayer and aggregates within the confined membrane interior. Once aggregated inside the cell, the molecules interact with each other, losing energy, and decreasing fluorescence through a process called quenching. If permeabilization occurs, dye is released into the medium and it regains its fluorescent properties, allowing it to be detected. Experiments were carried out using a spectrofluorimeter (Perkin Elmer LS 50 B). A water bath and circulator was connected to the machine.

C. albicans [2] = experiment: Fluorescence light and confocal microscopy, internalization of FITC-labeled peptide; assay type: cell-based, Candida albicans
Method: (§2) The internalization of MUC7 20-mer into fungi was visualized in C. albicans and C. neoformans. Untreated cells (10^7) or cells preincubated with 20 mM sodium azide, 300 μM CCCP, 50 mM Ca^++ or 50 mM Mg^++ were then treated with 50 μM FITC-MUC7 20-mer for 45-90 minutes in 100 μl of Na phosphate buffer (10 mM, pH 7.4) at 37° C. Untreated cells were also incubated with 50 μM FITC-MUC7 20-mer at 4° C. The cells were then extensively washed with phosphate buffer, concentrated and resuspended in the same buffer. The cell suspension was then quickly mounted on slides with sealed cover-slips. Fluorescence light micrographs were made on a Nikon Optiphot microscope, with a fluorescent light source.
(§3) The intracellular localization of FITC-MUC7-20mer was investigated in a double-labeling experiment using MitoTracker Red mitochondrial probe. C. albicans and C. neoformans were incubated with 500 nM MitoTracker Red in 10 mM Na phosphate buffer, pH 7.4 for 15 minutes at room temperature, washed three times with the same buffer, and subsequently incubated with 50 μM FITC-MUC7 20-mer. After 20 min. incubation at 37° C., the suspension was washed with phosphate buffer extensively. The cell suspension was then quickly mounted on slides with sealed cover-slips. Confocal fluorescence microscopy was performed with a BioRad MRC-1024 confocal microscope system with Krypton-argon laser which outputs 488, 568 and 647 nm excitation line and Nikon upright epifluorescence microscope (Zeiss 60× oil immersion planApp objective with 1.4 numerical aperture).
(§4) The internalization of MUC7 20-mer and 12-mer-3 into fungi was visualized using FITC labeled peptides. Cells (10^7) were treated with 50 μM FITC-MUC7 20-mer or 12-mer-3 for 45-90 mins in 100 μl of Na phosphate buffer (10 mM, pH 7.4) at 37° C. The cells were then processed and visualized as described in Example 1.

C. albicans [3] = experiment: Antifungal (cidal) activity assay, loss of cell viability; assay type: cell-based, Candida albicans; conditions: for Loss of Cell viability (%): Candida albicans, 6.25 μM, pH 7.4
Source text: (§5) Azole-sensitive (# 2-76) and azole-resistant (# 12-99) clinical isolates of C. albicans were a gift from Dr. Theodore C. White (University of Washington and Seattle Biomedical Research Institute, Seattle, Wash.). An azole-sensitive Candida glabrata (C. glabrata) was purchased from ATCC (ATCC 90030) and its azole-resistant counterpart, clinical isolate 65C, was obtained from Dr. John E. Bennett (National Institute of Allergy and Infectious Diseases, Bethesda, Md.). A clinical isolate of Candida krusei (C. krusei) was obtained from the Erie County Medical Center, Buffalo, N.Y. Amphotericin B-sensitive (CN2) and -resistant (CN2843) C. neoformans strains were obtained from AIDS patients with cryptococcal meningitis and were generously provided by Dr. John H. Rex (University of Texas Medical School, Houston, Tex.). Additionally, Saccharomyces cerevisiae (S. serevisiae) strain S288C was provided by Dr. D. Kosman, Department of Biochemistry, University at Buffalo, the State University of New York. All fungi were streaked and grown on SAB plates at 37° C., except S. cerevisiae, which was grown at 30° C. until large colonies were formed. One colony was then picked and resuspended in Na phosphate buffer (pH 7.4) and the concentration was adjusted to 1×10^5 cell/ml for the antifungal assay described below.
(§6) Two fold serial dilutions of each peptide (ranging from 100 μM down to 1.5625 μM) in 20 μl of 10 mM Na phosphate buffer, pH 7.4, were incubated with an equal volume of bacterial or fungal strain (10^5 cells/ml) for 1.5 hours at 30° C. for S. cerevisiae and 37° C. for the rest of strains tested. At the end of incubation, the samples were diluted 20 fold and aliquots (˜120 cells) of each sample were plated on appropriate plates depending on the strain tested, as indicated above. Plates were incubated for 1 to 7 days aerobically or anaerobically, depending on the strain tested. Colonies were then counted, and the loss of cell viability was plotted as a function of protein concentration. Fungicidal activities against C. albicans and C. neoformans were also tested at 4° C.
(§7) To test the effect of inhibitors of oxidative phosphorylation in the mitochondrial system on peptide-induced killing, C. albicans and C. neoformans (CN2) were preincubated with either 20 mM sodium azide or 300 μM CCCP for 2 hours at 37° C. The cidal assays were then carried out as described above. In separate control experiments, both inhibitors were evaluated for their toxicity toward C. albicans and C. neoformans (CN2) in the absence of peptides. At these concentrations, neither compound had any cidal effect. In addition, the fungicidal activities of MUC7 20-mer and Hsn-5 (25 μM) in 10 mM Na phosphate buffer (pH 7.4) in the presence of varying concentrations (1-50 mM) of Ca^++ (as CaCl2) or Mg^++ (as MgCl2) were examined.
(§8) A time course study of peptide-induced killing was statistically analyzed by student t-test.
(§9) Two fold serial dilutions of each peptide (ranging from 50 or 25 μM down to 1.5625 μM) in 20 μl of 10 mM Na phosphate buffer, pH 7.4, were incubated with an equal volume of fungal strain (10^5 cells/ml, also in Na phosphate buffer) for 1.5 hours at 37°. At the end of incubation, the samples were diluted 20 fold with the same buffer and aliquots (˜150 cells) of each sample were plated on SAB plates. Plates were incubated for 1 to 2 days for C. albicans and C. neoformans, respectively. Colonies were then counted, and the loss of cell viability was plotted as a function of protein concentration. The statistical analysis was as described in Example 1.

C. neoformans [4] = experiment: as above; assay type: cell-based, Cryptococcus neoformans; conditions: for Loss of Cell viability (%): Cryptococcus neoformans, 6.25 μM, pH 7.4
Source text: as §5, §6, §7, §8, §9

C. neoformans [5] = experiment: Fungal transmembrane potential, DiSC3(5) dye release; assay type: cell-based, Cryptococcus neoformans; conditions: peptide 18 μM, 1500 second
Method: as §1

C. neoformans [6] = experiment: Fluorescence light and confocal microscopy, internalization of FITC-labeled peptide; assay type: cell-based, Cryptococcus neoformans
Method: as §2, §3, §4

[7] = 4° C., 20 mM sodium azide, 300 μM CCCP

## CC[C@H](C)[C@H](NC(=O)[C@H](Cc1ccccc1)NC(=O)[C@@H]1CCCN1C(=O)[C@H](CCCCN)NC(=O)[C@H](CCC(N)=O)NC(=O)[C@H](Cc1c[nH]cn1)NC(=O)[C@H](C)NC(=O)[C@@H](N)CC(C)C)C(=O)N[C@@H](CCCNC(=N)N)C(=O)N[C@@H](CCCCN)C(=O)N[C@@H](CO)C(=O)N[C@@H](Cc1ccc(O)cc1)C(=O)N[C@@H](CCCCN)C(=O)N[C@@H](CS)C(=O)N[C@@H](CC(C)C)C(=O)N[C@@H](Cc1c[nH]cn1)C(=O)N[C@@H](CCCCN)C(=O)N[C@@H](CCCNC(=N)N)C(=O)N[C@@H](CS)C(=O)N[C@@H](CCCNC(=N)N)C(=O)O [Peptide 20-mer] (H-LAHQKPFIRKSYKCLHKRCR-OH; N-terminus and C-terminus assumed)
A. actinomycetemcomitans
  internalization in bacterial cells: seen on the cell membrane and the inside
C. albicans [1]
  release of DiSC3(5) dye (loss of membrane potential): rapid release of dye
C. albicans [2]; 50 μM, 45-90 minutes, 37° C.
  internalization of FITC-labeled peptide: internalization is observed
C. albicans [2]; [7]
  uptake at 4° C. or after pretreatment with sodium azide or CCCP: did not affect uptake
C. albicans [3]
  killing activity at 4° C.: ~90%
C. albicans [3]; C. albicans, 300 μM CCCP or 20 mM sodium azide, 2 hours
  effect of pretreatment with CCCP or sodium azide on peptide-induced killing: did not protect
C. albicans [3]; C. albicans, 1 mM Ca++ or Mg++, peptide 25 μM
  effect of 1 mM Ca++ or Mg++ on anticandidal activity: limited effect
C. albicans [3]; C. albicans, 10 mM Ca++ or Mg++, peptide 25 μM
  anticandidal activity sustained in the presence of Ca++ or Mg++: 10%
C. albicans [3]; 15 min
  Loss of Cell viability (%): 42 + 5%
C. albicans [3]; 30 min
  Loss of Cell viability (%): 52 + 1%
C. albicans [3]; 45 min
  Loss of Cell viability (%): 64 + 3%
C. albicans [3]; 90 min
  Loss of Cell viability (%): 74 + 6%
C. neoformans [4]; 25 μM
  killing retained in the presence of Ca++: 90%
  killing retained in the presence of Mg++: 84%
C. neoformans [4]; C. neoformans, 300 μM CCCP or 20 mM sodium azide, 2 hours
  effect of pretreatment with CCCP or sodium azide on peptide-induced killing: did not protect
C. neoformans [4]; C. neoformans, 4° C.
  activity at 4° C.: hardly affected
C. neoformans [4]; 30 min
  Loss of Cell viability (%): 96 + 2%
C. neoformans [4]; 45 min
  Loss of Cell viability (%): 98 + 1%
C. neoformans [4]; 90 min
  Loss of Cell viability (%): 100 + 0%
C. neoformans [5]
  release of DiSC3(5) dye (loss of membrane potential): rapid release of dye
C. neoformans [6]; 50 μM, 45-90 minutes, 37° C.
  internalization of FITC-labeled peptide: internalization is observed
C. neoformans [6]; [7]
  uptake at 4° C. or after pretreatment with sodium azide or CCCP: did not affect uptake
